Data as given in patent US4069337A, “2-Substituted-indole-1-lower-alkanecarboxamides having anti-secretory or anti-ulcer activity” (Sterling Drug Inc., priority 1976, dated 1978).

What was measured:
[1] = tested on: secretion of gastric fluids; assay: anti-secretory activity in pylorus-ligated rats (method of Shay et al.); format: in vivo, male albino Wistar rats; details: oral
Description: In standard biological test procedures, described generally by Shay et al., Gastroenterology 5, 43 (1945) and 26, 906 (1954) and by Selmici et al., Acta Physiol. Acad. Sci. Hung. […] Anti-secretory activity was determined in male albino Wistar rats weighing approximately 180 g. using the method described by Shay et al. which is described as follows: the rats were divided into medicated groups of at least five rats each and control groups of ten rats. The rats were medicated orally once daily for 2 days prior to stomach ligation and once again immediately following ligation. All drugs were administered as the free base, and control rats received only the vehicle of medication. The rats were housed individually in wire cages, food was withdrawn 48 hours prior to surgery, and water was withdrawn at the time of surgery. Laparotomy was performed under light ether anesthesia, the pyloric-duodenal junction was ligated, and the wound was closed with metal clips and sprayed with a protective surgical dressing. Five hours following surgery, the rats were sacrificed, the stomach was removed, and the gastric juice collected. The gastric fluid was centrifuged, the total volume, color, and volume of solids were recorded. The pH of the gastric fluid was then determined on a Beckman pH meter, and the "free" and "total" hydrochloric acid content of each gastric sample was determined by titrating an aliquot of the gastric fluid (diluted to approximately 10 ml. with distilled water) by titrating with 0.1N sodium hydroxide against Toepfers reagent and phenolphthalein, respectively. By determining the milliequivalents of hydrochloric acid per milliliter of gastric juice and knowing the total volume of gastric juice secreted by each rat, the total acid output can be calculated. Since pH is a function of "free" acid, the activity of the test compounds can be evaluated by comparison of the mean "free" acid of medicated rats with the mean "free" acid of the controls, and the activity can thus be expressed in terms of percent inhibition of free acid.
(§1) Data obtained on administration of the compounds of formula I in rats in the anti-secretory and anti-ulcer tests described above are given in the table below. Unless noted otherwise, data were obtained on oral administration. Results in the anti-secretory activity tests are given in terms of the pH of the gastric fluid in the test animals and the percent inhibition of free acid, while results in the anti-ulcer test are given either in terms of the percent inhibition of ulcers or as a ratio representing the number of animals with ulcers (as the numerator) to the total number of animals in the test group (as the denominator). All doses are expressed in mg./kg.

[2] = tested on: reserpine-induced stomach ulceration; assay: anti-ulcer activity, reserpine-induced ulcer test (method of Selmici et al.); format: in vivo, male, albino, Sprague-Dawley rats; details: Rattus norvegicus, 18 h, oral
Description: The anti-ulcer activity of the compounds was determined using the reserpine-induced anti-ulcer test method, described by Selmici et al., which is described briefly as follows: male, albino, Sprague-Dawley rats, weighing approximately 300 g., were divided into medicated and control groups of at least five rats each, and one positive control group of five rats medicated with a known drug at the active dose was run with each experiment. The rats were medicated forty-eight, twenty-four, and one hour before receiving an injection of reserpine. All test drugs were administered orally in terms of base, and the control rats received only the vehicle of medication. The rats were housed individually in wire cages, and food was withdrawn 24 hours prior to injection of reserpine, while water was allowed ad libitum. One hour following the third medication, 5.0 mg. of reserpine per kilogram of body weight in a concentration of 5 mg./ml. was injected intramuscularly in each rat. Eighteen hours after injection the rats were sacrificed, their stomachs removed, opened along the greater curvature, rinsed in warm saline, and pinned to a cork board for gross observation. The stomachs were examined for the number and size of ulcerations located in the glandular portion of the stomach with the aid of a one millimeter grid ocular with a 10x dissecting microscope. The degree of ulceration was arbitrarily graded according to the number and size of the ulcers as follows:
The points were added together and divided by the number of rats in each group to give an ulcer score, and the difference in the mean scores of the medicated and control group was expressed as percent inhibition of ulceration. Alternatively, the results can be expressed as a ratio of the total number of rats with any degree of ulceration (as the numerator) to the total number of rats in the test group (as the denominator).
as §1

[3] = Rattus norvegicus, po, 5 h, 25 mg./kg., read-out: % Inhibition of Free Acid
[4] = Rattus norvegicus, po, 5 h, 100 mg./kg., read-out: % Inhibition of Free Acid

SMILES: Cc1c(C)n(CC(N)=O)c2ccccc12 [Example 1A, 2,3-dimethyl-1-indoleacetamide]
- inhibition in vivo at 25 mg/kg [1, 3]: 69%
- inhibition in vivo at 50 mg/kg ([1]; Rattus norvegicus, po, 5 h, 50 mg./kg., read-out: % Inhibition of Free Acid): 65%
- inhibition in vivo at 100 mg/kg [1, 4]: 100%
- inhibition in vivo at 200 mg/kg ([1]; Rattus norvegicus, po, 5 h, 200 mg./kg., read-out: % Inhibition of Free Acid): 100%
- pH of the gastric fluid ([1]; 25 mg./kg.): 2.6
- pH of the gastric fluid ([1]; 50 mg./kg.): 3.0
- pH of the gastric fluid ([1]; 100 mg./kg.): 6.0
- pH of the gastric fluid ([1]; 200 mg./kg.): 6.7
- inhibition in vivo at 0.8 mg/kg [2]: 0%
- inhibition in vivo at 1.56 mg/kg [2]: 38%
- inhibition in vivo at 3.12 mg/kg ([2]; 3.12 mg./kg.): 45%
- inhibition in vivo at 6.25 mg/kg [2]: 75%
- inhibition in vivo at 12.5 mg/kg ([2]; 12.5 mg./kg.): 81%
- inhibition in vivo at 25 mg/kg [2]: 95%
- inhibition in vivo at 50 mg/kg [2]: 98%
- inhibition in vivo at 100 mg/kg [2]: 99%

SMILES: CCc1c(C)c2ccccc2n1CC(N)=O [Example 1C, 2-Ethyl-3-methyl-1-indoleacetamide]
- inhibition in vivo at 100 mg/kg [1, 4]: 50%
- pH of the gastric fluid ([1]; 100 mg./kg.): 2.8
- inhibition in vivo at 25 mg/kg [2]: 84%
- inhibition in vivo at 100 mg/kg [2]: 96%

SMILES: Cc1c(C)n(CCCC(N)=O)c2ccccc12 [Example 1D, γ-(2,3-Dimethyl-1-indole)butyramide]
- inhibition in vivo at 6.25 mg/kg ([1]; Rattus norvegicus, po, 5 h, 6.25 mg./kg., read-out: % Inhibition of Free Acid): 14%
- inhibition in vivo at 25 mg/kg [1, 3]: 38%
- inhibition in vivo at 100 mg/kg [1, 4]: 100%
- pH of the gastric fluid ([1]; 6.25 mg./kg.): 1.3
- pH of the gastric fluid ([1]; 25 mg./kg.): 1.6
- pH of the gastric fluid ([1]; 100 mg./kg.): 6.2
- inhibition in vivo at 0.8 mg/kg [2]: 38%
- inhibition in vivo at 1.56 mg/kg [2]: 38%
- inhibition in vivo at 6.25 mg/kg [2]: 0%
- inhibition in vivo at 25 mg/kg [2]: 72%
- inhibition in vivo at 100 mg/kg [2]: 99%

SMILES: Cc1c(C)n(CCC(=O)N(C)C)c2ccccc12 [Example 2, β-(2,3-dimethyl-1-indole)-N,N-dimethylpropionamide]
- inhibition in vivo at 100 mg/kg [1, 4]: 93%
- pH of the gastric fluid ([1]; 100 mg./kg.): 4.4
- inhibition in vivo at 25 mg/kg [2]: 34%

SMILES: Cc1c(C)n(CC(=O)NO)c2ccccc12 [Example 3B, 2,3-Dimethyl-1-indoleacetohydroxamic acid]
- inhibition in vivo at 100 mg/kg [1, 4]: 20%
- inhibition in vivo at 100 mg/kg [2]: 99%

SMILES: CCc1c(C)n(CC(N)=O)c2ccccc12 [Example 3C, 2-Methyl-3-ethyl-1-indoleacetamide]
- inhibition in vivo at 100 mg/kg [1, 4]: 86%
- pH of the gastric fluid ([1]; 100 mg./kg.): 2.8
- inhibition in vivo at 100 mg/kg [2]: 97%

SMILES: Cc1c(C)n(CCC(=O)NCCO)c2ccccc12 [Example 3D, β-(2,3-Dimethyl-1-indole)-N-(2-hydroxyethyl)propionamide]
- pH of the gastric fluid ([1]; 100 mg./kg.): 1.2
- inhibition in vivo at 25 mg/kg [2]: 48%

SMILES: Cc1c(C)n(CCC(=O)NCCCO)c2ccccc12 [Example 3E, β-(2,3-Dimethyl-1-indole)-N-(3-hydroxypropyl)propionamide]
- inhibition in vivo at 100 mg/kg [1, 4]: 34%
- pH of the gastric fluid ([1]; 100 mg./kg.): 1.4
- inhibition in vivo at 25 mg/kg [2]: 51%

SMILES: Cc1c(C)n(CCC(=O)NO)c2ccccc12 [Example 3F, β-(2,3-Dimethyl-1-indole)propionohydroxamic acid]
- inhibition in vivo at 100 mg/kg [1, 4]: 34%
- pH of the gastric fluid ([1]; 100 mg./kg.): 1.3
- inhibition in vivo at 50 mg/kg [2]: 95%

SMILES: Cc1c(C)n(CCC(N)=O)c2ccc(Cl)cc12 [Example 4B, β-(2,3-Dimethyl-5-chloro-1-indole)propionamide]
- inhibition in vivo at 100 mg/kg [1, 4]: 88%
- pH of the gastric fluid ([1]; 100 mg./kg.): 3.6
- inhibition in vivo at 25 mg/kg [2]: 95%
